Source: ChEMBL document CHEMBL1128953, “Solid-phase synthesis of peptidosulfonamide containing peptides derived from Leu-enkephalin” (Bioorg Med Chem Lett, 1996)
Peptide text beside a SMILES is read from it. * marks the point of attachment. X1 = CC(C)C[C@@H](CS(N)(=O)=O)N*

Assay: Compound was tested for inhibition of anti-beta-endorphin monoclonal antibody by using ELISA assay.
Type: functional

| Structure (SMILES) | IC50 |
| --- | --- |
| CC(C)C[C@H](NS(=O)(=O)C[C@H](Cc1ccccc1)NC(=O)CNC(=O)CNC(=O)[C@@H](N)Cc1ccc(O)cc1)C(N)=O | 0.9 µM |
| CC(C)C[C@H](NC(=O)[C@H](Cc1ccccc1)NC(=O)CNS(=O)(=O)CCNC(=O)[C@@H](N)Cc1ccc(O)cc1)C(=O)O | > 200 µM |
| CC(C)C[C@H](NC(=O)[C@H](Cc1ccccc1)NS(=O)(=O)CCNC(=O)CNC(=O)[C@@H](N)Cc1ccc(O)cc1)C(N)=O | 85 µM |
| CC(C)C[C@H](NC(=O)[C@H](Cc1ccccc1)NC(=O)CNS(=O)(=O)CCNC(=O)[C@@H](N)Cc1ccc(O)cc1)C(N)=O | 75 µM |
| CC(C)C[C@H](NS(=O)(=O)C[C@H](Cc1ccccc1)NC(=O)CNC(=O)CNC(=O)[C@@H](N)Cc1ccc(O)cc1)C(=O)O | 5 µM |
| CC(C)C[C@H](NC(=O)[C@H](Cc1ccccc1)NS(=O)(=O)CCNC(=O)CNC(=O)[C@@H](N)Cc1ccc(O)cc1)C(=O)O | > 200 µM |
| CC(C)C[C@@H](CS(N)(=O)=O)NC(=O)[C@H](Cc1ccccc1)NC(=O)CNC(=O)CNC(=O)[C@@H](N)Cc1ccc(O)cc1 (H-YGGF-X1) | 0.1 µM |
| CC(C)C[C@H](NC(=O)[C@H](Cc1ccccc1)NC(=O)CNC(=O)CNC(=O)[C@@H](N)Cc1ccc(O)cc1)C(N)=O [[LEU5]ENKEPHALIN] | 0.07 µM |
